# What was measured:
# [1] = target: T1, HER2 INS YVMA (Homo sapiens, UniProt P04626, INS775YVMA); test: Lance Kinase Activity Assay, HER2 INS YVMA (Her2 Exon 20 INSYVMA Lance); assay type: biochemical; conditions: biochemical Lance assay
# T1 construct: purchased DPF
# Procedure, shortened: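 Kinase phosphorylates a ULight-labelled peptide substrate; Eu anti-phospho antibody gives TR-FRET (ex 340 nm, em 665/615 nm). Compounds in 1:3 serial dilution over 8 steps, reaction started with ATP, 1 h at room temperature, stopped with EDTA-containing detection mix for 1 h. IC50 from sigmoidal dose-response curves.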
# [2] = target: Her2 Exon 20 INSYVMA Ba/F3 (Homo sapiens, UniProt P04626, DUP772-775, cells depend on it); test: Her2 Exon 20 INSYVMA Ba/F3 CellTiter-Glo; assay type: cell-based; conditions: CellTiter-Glo, 72 h, read-out: Her2 Exon 20 INSYVMA Ba/F3 CTG IC50
# Her2 Exon 20 INSYVMA Ba/F3, sequence (P04626 with tags, fused parts or gaps DUP772-775): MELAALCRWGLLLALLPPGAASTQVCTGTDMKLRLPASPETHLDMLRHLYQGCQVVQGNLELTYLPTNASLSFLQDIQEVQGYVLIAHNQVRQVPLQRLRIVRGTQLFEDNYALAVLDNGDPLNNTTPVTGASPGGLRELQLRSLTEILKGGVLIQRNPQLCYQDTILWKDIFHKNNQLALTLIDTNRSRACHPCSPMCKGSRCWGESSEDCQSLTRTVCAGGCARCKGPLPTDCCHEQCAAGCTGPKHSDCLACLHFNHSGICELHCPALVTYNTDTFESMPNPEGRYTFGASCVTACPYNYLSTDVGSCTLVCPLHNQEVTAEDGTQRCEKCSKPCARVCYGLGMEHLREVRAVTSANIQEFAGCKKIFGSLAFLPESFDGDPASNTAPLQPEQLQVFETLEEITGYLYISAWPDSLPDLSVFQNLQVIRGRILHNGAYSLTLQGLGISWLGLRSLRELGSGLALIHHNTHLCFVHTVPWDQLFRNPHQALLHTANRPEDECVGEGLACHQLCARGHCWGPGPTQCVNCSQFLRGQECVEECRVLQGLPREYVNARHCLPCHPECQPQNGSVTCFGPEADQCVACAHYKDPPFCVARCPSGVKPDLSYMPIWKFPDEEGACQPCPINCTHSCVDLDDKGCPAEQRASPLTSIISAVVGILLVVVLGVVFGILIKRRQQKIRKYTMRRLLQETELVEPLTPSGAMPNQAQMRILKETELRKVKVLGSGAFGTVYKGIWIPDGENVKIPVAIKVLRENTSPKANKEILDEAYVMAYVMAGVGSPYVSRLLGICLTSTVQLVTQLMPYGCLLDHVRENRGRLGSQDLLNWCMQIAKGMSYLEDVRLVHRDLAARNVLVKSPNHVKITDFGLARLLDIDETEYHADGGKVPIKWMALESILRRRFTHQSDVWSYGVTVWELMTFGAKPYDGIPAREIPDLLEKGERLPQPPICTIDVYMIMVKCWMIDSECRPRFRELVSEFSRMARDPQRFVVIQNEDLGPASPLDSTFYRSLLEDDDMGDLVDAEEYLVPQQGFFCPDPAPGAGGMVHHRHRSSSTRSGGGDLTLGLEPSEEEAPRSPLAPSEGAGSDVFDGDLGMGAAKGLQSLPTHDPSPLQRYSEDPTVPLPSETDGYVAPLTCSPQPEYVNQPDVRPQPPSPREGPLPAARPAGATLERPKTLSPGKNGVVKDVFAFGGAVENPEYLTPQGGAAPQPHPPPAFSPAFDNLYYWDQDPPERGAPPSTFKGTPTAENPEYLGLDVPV
# Procedure, shortened: (§1)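 Seed Ba/F3 cells; 24 h, 37 °C/5% CO2. Add cpds in DMSO, multiple concs; 72 h. CellTiter-Glo, 10 min RT, luminescence. IC50 by curve fit. Z′ ≥0.5 from DMSO vs 10 μM staurosporine.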
# [3] = target: EGFR Exon 20 INSNPH Ba/F3 (Homo sapiens, UniProt P00533, DUP771-773, cells depend on it); test: EGFR Exon 20 INSNPH Ba/F3 CellTiter-Glo; assay type: cell-based; conditions: CellTiter-Glo, 72 h, read-out: EGFR Exon 20 INSNPH Ba/F3 CTG IC50
# Procedure, shortened: as §1
# [4] = target: EGFR T790ML858R (Homo sapiens, UniProt P00533, L858R/T790M); test: EGFR T790ML858R Lance assay; assay type: biochemical
# EGFR T790ML858R, sequence (P00533 25-1210 T790M/L858R): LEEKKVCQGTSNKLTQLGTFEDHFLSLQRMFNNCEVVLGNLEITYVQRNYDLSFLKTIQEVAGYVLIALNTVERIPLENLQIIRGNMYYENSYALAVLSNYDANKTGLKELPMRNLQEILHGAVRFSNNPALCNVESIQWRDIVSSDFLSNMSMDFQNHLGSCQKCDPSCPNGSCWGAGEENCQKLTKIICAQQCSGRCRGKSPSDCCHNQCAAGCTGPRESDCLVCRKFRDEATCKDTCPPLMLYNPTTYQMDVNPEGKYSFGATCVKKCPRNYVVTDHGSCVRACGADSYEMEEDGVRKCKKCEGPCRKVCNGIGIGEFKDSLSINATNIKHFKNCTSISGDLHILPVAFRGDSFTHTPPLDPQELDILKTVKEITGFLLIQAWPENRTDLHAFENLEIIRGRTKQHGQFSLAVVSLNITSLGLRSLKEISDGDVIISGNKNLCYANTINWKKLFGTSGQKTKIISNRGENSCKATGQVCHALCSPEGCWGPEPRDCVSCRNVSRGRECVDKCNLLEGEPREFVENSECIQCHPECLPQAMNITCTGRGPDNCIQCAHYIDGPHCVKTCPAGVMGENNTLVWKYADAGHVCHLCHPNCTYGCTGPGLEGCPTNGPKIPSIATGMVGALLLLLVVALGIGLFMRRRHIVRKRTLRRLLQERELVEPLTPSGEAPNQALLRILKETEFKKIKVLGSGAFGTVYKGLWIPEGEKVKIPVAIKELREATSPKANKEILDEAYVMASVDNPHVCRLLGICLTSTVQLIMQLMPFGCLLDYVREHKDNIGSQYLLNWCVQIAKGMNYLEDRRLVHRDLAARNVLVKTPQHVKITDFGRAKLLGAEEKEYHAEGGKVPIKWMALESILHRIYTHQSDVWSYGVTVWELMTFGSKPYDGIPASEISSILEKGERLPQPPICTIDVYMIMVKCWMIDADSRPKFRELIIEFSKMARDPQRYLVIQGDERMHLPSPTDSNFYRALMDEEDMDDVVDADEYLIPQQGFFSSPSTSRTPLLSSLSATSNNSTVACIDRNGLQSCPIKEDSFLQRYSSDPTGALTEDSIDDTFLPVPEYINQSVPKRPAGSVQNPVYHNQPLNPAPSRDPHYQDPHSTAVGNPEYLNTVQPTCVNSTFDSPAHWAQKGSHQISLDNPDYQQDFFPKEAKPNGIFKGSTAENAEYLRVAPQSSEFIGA
# Description: (§2) Inhibition is indicated as […] [nM] (“−”=not measured). Compounds having an activity designated as “A” provided an IC50≤100 nM; compounds having an activity designated as “B” provided an 100 nM<IC50≤500 nM; compounds having an activity designated as “C” provided an 500 nM<IC50≤1000 nM; compounds having an activity designated as “D” provided an 1000 nM<IC50≤100000 nM; and compounds having an activity designated as “E” provided an IC50>10000 nM.
# [5] = target: EGFR wt (Homo sapiens, UniProt P00533); test: EGFR wt Lance assay; assay type: biochemical
# EGFR wt, sequence (P00533 25-1210): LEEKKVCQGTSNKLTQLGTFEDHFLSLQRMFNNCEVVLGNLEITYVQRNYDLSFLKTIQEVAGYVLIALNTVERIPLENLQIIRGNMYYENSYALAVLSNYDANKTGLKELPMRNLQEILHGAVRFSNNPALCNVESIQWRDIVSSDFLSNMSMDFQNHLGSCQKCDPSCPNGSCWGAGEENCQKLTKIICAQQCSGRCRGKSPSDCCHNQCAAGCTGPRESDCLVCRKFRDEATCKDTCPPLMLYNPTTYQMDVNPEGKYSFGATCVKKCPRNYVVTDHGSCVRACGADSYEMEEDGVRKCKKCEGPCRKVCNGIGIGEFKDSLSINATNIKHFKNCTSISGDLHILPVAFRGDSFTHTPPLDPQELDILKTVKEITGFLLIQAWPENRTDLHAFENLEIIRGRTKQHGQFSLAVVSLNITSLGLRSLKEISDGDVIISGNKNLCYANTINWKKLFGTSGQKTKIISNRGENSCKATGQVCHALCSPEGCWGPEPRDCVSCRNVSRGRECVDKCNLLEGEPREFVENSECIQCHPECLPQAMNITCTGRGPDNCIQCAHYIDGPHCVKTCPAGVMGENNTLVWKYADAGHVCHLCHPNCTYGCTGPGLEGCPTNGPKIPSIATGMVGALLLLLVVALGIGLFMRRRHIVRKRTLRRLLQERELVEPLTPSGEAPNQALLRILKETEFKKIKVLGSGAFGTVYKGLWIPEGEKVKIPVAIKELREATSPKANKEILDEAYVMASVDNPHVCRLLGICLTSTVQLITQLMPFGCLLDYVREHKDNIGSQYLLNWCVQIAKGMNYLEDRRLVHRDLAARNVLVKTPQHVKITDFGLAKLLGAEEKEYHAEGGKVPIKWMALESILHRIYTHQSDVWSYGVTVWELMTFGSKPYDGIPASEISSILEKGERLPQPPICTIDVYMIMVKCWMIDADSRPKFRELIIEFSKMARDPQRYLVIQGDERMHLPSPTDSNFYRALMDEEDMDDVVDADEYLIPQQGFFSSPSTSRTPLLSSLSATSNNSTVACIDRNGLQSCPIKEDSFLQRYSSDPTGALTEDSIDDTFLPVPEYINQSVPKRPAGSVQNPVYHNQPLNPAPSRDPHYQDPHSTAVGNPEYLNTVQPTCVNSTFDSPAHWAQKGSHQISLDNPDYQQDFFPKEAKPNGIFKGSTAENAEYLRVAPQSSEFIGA
# Description: as §2
# [6] = test system: H1975; test: H1975 CellTiter-Glo; assay type: cell-based; conditions: Homo sapiens, NCI-H1975; 72 h compound incubation; read-out: H1975 CTG IC50
# Procedure, shortened: (§3)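 Antiproliferative IC50 values come from a 72 h treatment of cultured cells, measured by CellTiter-Glo ATP luminescence. Only runs with a Z′-factor of at least 0.5, calculated from 16 vehicle and 16 Staurosporine (10 μM) control wells, are reported.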
# [7] = test system: A431; test: A431 CellTiter-Glo; assay type: cell-based; conditions: Homo sapiens, A-431; 72 h compound incubation; read-out: A431 CTG IC50
# Procedure, shortened: as §3
# T1 sequence (P04626 with tags, fused parts or gaps INS775YVMA): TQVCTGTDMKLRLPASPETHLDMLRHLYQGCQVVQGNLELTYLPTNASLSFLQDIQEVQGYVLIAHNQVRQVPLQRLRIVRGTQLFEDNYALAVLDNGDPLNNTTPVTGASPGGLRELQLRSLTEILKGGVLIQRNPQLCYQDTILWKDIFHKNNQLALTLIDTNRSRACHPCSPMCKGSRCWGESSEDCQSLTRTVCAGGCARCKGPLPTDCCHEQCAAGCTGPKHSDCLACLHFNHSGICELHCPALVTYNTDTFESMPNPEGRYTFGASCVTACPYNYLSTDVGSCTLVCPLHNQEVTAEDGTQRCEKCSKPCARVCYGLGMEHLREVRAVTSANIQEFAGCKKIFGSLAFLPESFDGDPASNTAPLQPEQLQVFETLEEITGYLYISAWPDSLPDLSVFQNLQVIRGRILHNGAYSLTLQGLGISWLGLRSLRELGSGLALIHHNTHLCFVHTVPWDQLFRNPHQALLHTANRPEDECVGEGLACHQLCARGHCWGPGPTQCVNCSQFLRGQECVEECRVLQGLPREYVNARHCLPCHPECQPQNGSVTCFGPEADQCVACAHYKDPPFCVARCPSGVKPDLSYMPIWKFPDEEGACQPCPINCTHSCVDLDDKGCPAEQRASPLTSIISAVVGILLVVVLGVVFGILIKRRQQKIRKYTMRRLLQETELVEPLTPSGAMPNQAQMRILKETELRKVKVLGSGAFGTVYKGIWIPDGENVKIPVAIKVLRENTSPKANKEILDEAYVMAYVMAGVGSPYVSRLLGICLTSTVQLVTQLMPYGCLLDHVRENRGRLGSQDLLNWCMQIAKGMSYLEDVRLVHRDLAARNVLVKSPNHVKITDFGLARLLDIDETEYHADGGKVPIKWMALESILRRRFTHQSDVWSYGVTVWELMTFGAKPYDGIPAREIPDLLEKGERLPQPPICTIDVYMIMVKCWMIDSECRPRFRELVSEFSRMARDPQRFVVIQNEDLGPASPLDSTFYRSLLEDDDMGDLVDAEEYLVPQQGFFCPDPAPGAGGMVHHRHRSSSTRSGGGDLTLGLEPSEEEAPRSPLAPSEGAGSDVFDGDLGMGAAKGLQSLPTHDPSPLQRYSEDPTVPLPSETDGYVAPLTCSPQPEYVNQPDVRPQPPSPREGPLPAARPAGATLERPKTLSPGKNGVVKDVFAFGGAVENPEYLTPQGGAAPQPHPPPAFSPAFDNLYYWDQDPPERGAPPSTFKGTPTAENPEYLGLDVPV
SMILES,IC50 [1] [nM],GI50 [2] [nM],GI50 [3] [nM],IC50 [4] [nM],IC50 [5] [nM],IC50 [6] [nM],IC50 [7] [nM]
"C=CC(=O)Nc1cc(-c2c(-c3ccc(N4CCN(C(C)=O)CC4)cc3)[nH]c3ncc(C(=O)OC(C)C)cc23)ccc1C [Example 162, isopropyl 2-(4-(4-acetylpiperazin-1-yl)phenyl)-3-(3-acrylamido-4-methylphenyl)-1H-pyrrolo[2,3-b]pyridine-5-carboxylate]",≤ 100,1000 to 10000,500 to 1000,≤ 100,≤ 100,1000 to 100000,1000 to 100000
"C=CC(=O)Nc1cc(-c2c(-c3ccc(N4CCN(C)CC4)nc3)[nH]c3ncc(C(=O)OC(C)C)cc23)ccc1C [Example 163, isopropyl 3-(3-acrylamido-4-methylphenyl)-2-(6-(4-methylpiperazin-1-yl)pyridin-3-yl)-1H-pyrrolo[2,3-b]pyridine-5-carboxylate]",≤ 100,500 to 1000,500 to 1000,≤ 100,≤ 100,500 to 1000,1000 to 100000
"C=CC(=O)Nc1cc(-c2c(-c3ccnc(N4CCOCC4)c3)[nH]c3ncc(C(=O)OC(C)C)cc23)ccc1C [Example 166, isopropyl 3-(3-acrylamido-4-methylphenyl)-2-(2-morpholinopyridin-4-yl)-1H-pyrrolo[2,3-b]pyridine-5-carboxylate]",500 to 1000,1000 to 10000,1000 to 10000,100 to 500,≤ 100,1000 to 100000,1000 to 100000
"C=CC(=O)Nc1cc(-c2c(-c3ccc(S(=O)(=O)N4CCN(C)CC4)cc3)[nH]c3ncc(C(=O)OC(C)C)cc23)ccc1C [Example 167, isopropyl 3-(3-acrylamido-4-methylphenyl)-2-(4-((4-methylpiperazin-1-yl)sulfonyl)phenyl)-1H-pyrrolo[2,3-b]pyridine-5-carboxylate]",100 to 500,500 to 1000,500 to 1000,≤ 100,≤ 100,500 to 1000,1000 to 100000
"C=CC(=O)Nc1cc(-c2c(-c3ccc(CCO)cc3)[nH]c3ncc(C(=O)OC(C)C)cc23)ccc1C [Example 168, isopropyl 3-(3-acrylamido-4-methylphenyl)-2-(4-(2-hydroxyethyl)phenyl)-1H-pyrrolo[2,3-b]pyridine-5-carboxylate]",100 to 500,500 to 1000,500 to 1000,100 to 500,≤ 100,1000 to 100000,1000 to 100000
"C=CC(=O)Nc1cc(-c2c(-c3cnc(N4CCN(C)CC4)s3)[nH]c3ncc(C(=O)OC(C)C)cc23)ccc1C [Example 169, isopropyl 3-(3-acrylamido-4-methylphenyl)-2-(2-(4-methylpiperazin-1-yl)thiazol-5-yl)-1H-pyrrolo[2,3-b]pyridine-5-carboxylate]",≤ 100,500 to 1000,100 to 500,≤ 100,≤ 100,1000 to 100000,1000 to 100000
"C=CC(=O)Nc1cc(-c2c(-c3ccc(N4CCOCC4)nc3)[nH]c3ncc(C(=O)OC(C)C)cc23)ccc1C [Example 171, isopropyl 3-(3-acrylamido-4-methylphenyl)-2-(6-morpholinopyridin-3-yl)-1H-pyrrolo[2,3-b]pyridine-5-carboxylate]",1000 to 10000,1000 to 10000,1000 to 10000,500 to 1000,≤ 100,1000 to 100000,1000 to 100000
"C=CC(=O)Nc1cc(-c2c(-c3cnc(N4CCOCC4)nc3)[nH]c3ncc(C(=O)OC(C)C)cc23)ccc1C [Example 173, isopropyl 3-(3-acrylamido-4-methylphenyl)-2-(2-morpholinopyrimidin-5-yl)-1H-pyrrolo[2,3-b]pyridine-5-carboxylate]",> 10000,1000 to 10000,1000 to 10000,1000 to 100000,500 to 1000,1000 to 100000,1000 to 100000

# Results, then the molecule that gave them:
IC50 [1] [nM],GI50 [2] [nM],GI50 [3] [nM],IC50 [4] [nM],IC50 [5] [nM],IC50 [6] [nM],IC50 [7] [nM],SMILES
≤ 100,500 to 1000,100 to 500,≤ 100,≤ 100,500 to 1000,1000 to 100000,"C=CC(=O)Nc1cc(-c2c(-c3ccc(N4CCN(C)CC4)nc3)[nH]c3ncc(C(=O)OC(C)C)cc23)cc(F)c1C [Example 174, isopropyl 3-(3-acrylamido-5-fluoro-4-methylphenyl)-2-(6-(4-methylpiperazin-1-yl)pyridin-3-yl)-1H-pyrrolo[2,3-b]pyridine-5-carboxylate]"
100 to 500,1000 to 10000,1000 to 10000,100 to 500,≤ 100,1000 to 100000,1000 to 100000,"C=CC(=O)Nc1cc(-c2c(-c3cnc(N4CCN(C)CC4)nc3)[nH]c3ncc(C(=O)OC(C)C)cc23)ccc1C [Example 175, isopropyl 3-(3-acrylamido-4-methylphenyl)-2-(2-(4-methylpiperazin-1-yl)pyrimidin-5-yl)-1H-pyrrolo[2,3-b]pyridine-5-carboxylate]"
100 to 500,1000 to 10000,500 to 1000,100 to 500,≤ 100,1000 to 100000,1000 to 100000,"C=CC(=O)Nc1cc(-c2c(-c3ccc(OCCO)cc3)[nH]c3ncc(C(=O)OC(C)C)cc23)ccc1C [Example 178, isopropyl 3-(3-acrylamido-4-methylphenyl)-2-(4-(2-hydroxyethoxy)phenyl)-1H-pyrrolo[2,3-b]pyridine-5-carboxylate]"
≤ 100,100 to 500,100 to 500,≤ 100,≤ 100,500 to 1000,1000 to 100000,"C=CC(=O)Nc1cc(-c2c(-c3ccnc(N4CCN(C)CC4)c3)[nH]c3ncc(C(=O)OC(C)C)cc23)cc(F)c1C [Example 180, isopropyl 3-(3-acrylamido-5-fluoro-4-methylphenyl)-2-(2-(4-methylpiperazin-1-yl)pyridin-4-yl)-1H-pyrrolo[2,3-b]pyridine-5-carboxylate]"
≤ 100,500 to 1000,500 to 1000,≤ 100,≤ 100,500 to 1000,1000 to 100000,"C=CC(=O)Nc1cc(-c2c(-c3cccc(CN4CCN(C)CC4)c3)[nH]c3ncc(C(=O)OC(C)C)cc23)ccc1C [Example 181, isopropyl 3-(3-acrylamido-4-methylphenyl)-2-(3-((4-methylpiperazin-1-yl)methyl)phenyl)-1H-pyrrolo[2,3-b]pyridine-5-carboxylate]"
≤ 100,100 to 500,100 to 500,≤ 100,≤ 100,100 to 500,1000 to 100000,"C=CC(=O)Nc1cc(-c2c(-c3cccc(OCCCN(C)C)c3)[nH]c3ncc(C(=O)OC(C)C)cc23)ccc1C [Example 183, isopropyl 3-(3-acrylamido-4-methylphenyl)-2-(3-(3-(dimethylamino)propoxy)phenyl)-1H-pyrrolo[2,3-b]pyridine-5-carboxylate]"
500 to 1000,1000 to 10000,1000 to 10000,100 to 500,≤ 100,1000 to 100000,> 10000,"C=CC(=O)Nc1cc(-c2c(-c3ccc(N4CCN(S(=O)(=O)CC)CC4)cc3)[nH]c3ncc(C(=O)OC(C)C)cc23)ccc1C [Example 184, isopropyl 3-(3-acrylamido-4-methylphenyl)-2-(4-(4-(ethylsulfonyl)piperazin-1-yl)phenyl)-1H-pyrrolo[2,3-b]pyridine-5-carboxylate]"
1000 to 10000,1000 to 10000,1000 to 10000,500 to 1000,≤ 100,1000 to 100000,> 10000,"C=CC(=O)Nc1cc(-c2c(-c3cccc(N4CCN(C(C)=O)CC4)c3)[nH]c3ncc(C(=O)OC(C)C)cc23)ccc1C [Example 185, isopropyl 2-(3-(4-acetylpiperazin-1-yl)phenyl)-3-(3-acrylamido-4-methylphenyl)-1H-pyrrolo[2,3-b]pyridine-5-carboxylate]"

# Reference: US20220370440A1 (Lead Discovery Center GmbH, priority 2018, published 2022)
